This note sets out measurements from patent US10947213B1 (Merck Patent GmbH, priority 2015, dated 2021).

Structures can show the parent of a compound that is named as a salt.

The experiment deals with T1, TLR7/NFKb HEK cells (Homo sapiens, UniProt Q9NYK1).
T1 construct: expressed in transfected cells; host or cells: HEK cells (TLR7/NFKb reporter line)
T1 sequence (Q9NYK1 27-1049): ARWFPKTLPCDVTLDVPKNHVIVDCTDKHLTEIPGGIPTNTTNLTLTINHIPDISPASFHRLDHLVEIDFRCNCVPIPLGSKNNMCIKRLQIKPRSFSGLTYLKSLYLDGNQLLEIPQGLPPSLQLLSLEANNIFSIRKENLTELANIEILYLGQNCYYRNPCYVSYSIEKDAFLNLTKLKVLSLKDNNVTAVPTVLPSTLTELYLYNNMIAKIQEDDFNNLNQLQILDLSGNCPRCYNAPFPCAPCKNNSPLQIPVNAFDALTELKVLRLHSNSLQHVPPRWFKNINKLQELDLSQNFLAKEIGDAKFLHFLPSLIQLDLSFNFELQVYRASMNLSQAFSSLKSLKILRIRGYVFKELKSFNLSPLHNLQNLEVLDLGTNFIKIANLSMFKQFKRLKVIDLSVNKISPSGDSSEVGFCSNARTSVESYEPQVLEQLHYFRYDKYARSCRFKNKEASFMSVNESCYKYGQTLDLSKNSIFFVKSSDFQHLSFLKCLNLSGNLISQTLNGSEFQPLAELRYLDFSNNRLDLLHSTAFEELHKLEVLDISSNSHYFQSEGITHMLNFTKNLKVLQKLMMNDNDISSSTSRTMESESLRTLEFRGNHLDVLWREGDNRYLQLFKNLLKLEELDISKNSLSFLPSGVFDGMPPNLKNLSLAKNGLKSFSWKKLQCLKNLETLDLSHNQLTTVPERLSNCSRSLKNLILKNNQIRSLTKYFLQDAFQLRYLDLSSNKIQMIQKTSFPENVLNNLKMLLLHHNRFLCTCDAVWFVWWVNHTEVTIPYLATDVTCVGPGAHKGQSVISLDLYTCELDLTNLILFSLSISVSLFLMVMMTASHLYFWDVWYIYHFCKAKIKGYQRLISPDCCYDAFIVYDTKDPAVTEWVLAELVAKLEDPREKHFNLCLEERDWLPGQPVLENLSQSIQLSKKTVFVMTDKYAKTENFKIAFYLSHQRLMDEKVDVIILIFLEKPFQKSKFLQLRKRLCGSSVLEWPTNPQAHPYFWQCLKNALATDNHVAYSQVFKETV
Kind of experiment: HEK Cell Assay (TLR7/NFKb reporter, Steady-Glo luciferase readout). Type of experiment: cell-based. The note with it: 30 min compound preincubation, then R*48 agonist for 5 hours, read-out: Potency. The method in brief:
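Steady-Glo luminescence after 5 h stimulation with R*48 agonist, following 30 min compound preincubation. Assay run in HEK cells carrying a TLR7/NFKb luciferase reporter, plated at 5000 cells/well and grown 24 h at 37° C (10% CO2) before treatment.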
In the case of `CN1CCN(CC(=O)NC2CN(c3ccc(C#N)c4nccnc34)CC(F)(F)C2)CC1` (stereo not drawn) [Compound 503, N-[1-(8-Cyano-quinoxalin-5-yl)-5,5-difluoro-piperidin-3-yl]-2-(4-methyl-piperazin-1-yl)-acetamide], the IC50 is less than 1000 nM.
For `N#Cc1ccc(N2C[C@@H](NC(=O)CC3(N)CCCCC3)C[C@@H](C(F)(F)F)C2)c2cccnc12` (racemic) [Compound 479, hydrochloride], the IC50 was less than 1000 nM.
In the case of `COc1ccc(N2C[C@@H](C)C[C@@H](N)C2)c2cccnc12` [Compound 187, (3R,5S)-1-(8-methoxyquinolin-5-yl)-5-methylpiperidin-3-amine] it was less than 1000 nM; in that of `C[C@H]1C[C@@H](NC(=O)CNS(C)(=O)=O)CN(c2ccc(C(F)(F)F)c3ncccc23)C1` [Compound 474, 2-Methanesulfonylamino-N-[(3R,5S)-5-methyl-1-(8-trifluoromethyl-quinolin-5-yl)-piperidin-3-yl]-acetamide], 1000 to 10000 nM.
On to `C[C@@H]1CN(c2ccnc3nccnc23)C[C@H](CN2CCN(C)C(C)(C)C2)O1` [Compound 54, (2R,6S)-2-methyl-4-(pyrido[2,3-b]pyrazin-8-yl)-6-((3,3,4-trimethylpiperazin-1-yl)methyl)morpholine], for which the IC50 was less than 1000 nM.
Under `C[C@H]1C[C@@H](NC(=O)CC2CCN(CC(F)F)CC2)CN(c2ccc(C#N)c3nccnc23)C1` [Compound 234, N-[(3R,5S)-1-(8-cyanoquinoxalin-5-yl)-5-methylpiperidin-3-yl]-2-[1-(2,2-difluoroethyl)piperidin-4-yl]acetamide] stands less than 1000 nM.
`C[C@H]1C[C@@H](NC(=O)CO)CN(c2ccnc3ccccc23)C1` [Compound 14, 2-hydroxy-N-((3R,5S)-5-methyl-1-(quinolin-4-yl)piperidin-3-yl)acetamide]: the IC50 was greater than 10000 nM.
In the case of `C[C@H]1C[C@@H](NC(=O)CN(C)C)CN(c2c(F)cc(C#N)c3nccnc23)C1` [Compound 347, N-[(3R,5S)-1-(8-cyano-6-fluoroquinoxalin-5-yl)-5-methylpiperidin-3-yl]-2-(dimethylamino)acetamide] it was 1000 to 10000 nM; in that of `CC(O)C(=O)N[C@@H]1C[C@H](C)CN(c2ccc(C(F)F)c3nccnc23)C1` (stereo partly drawn) [Compound 79, N-[(3R,5S)-1-[8-(difluoromethyl)quinoxalin-5-yl]-5-methylpiperidin-3-yl]-2-hydroxypropanamide], 1000 to 10000 nM.
In the case of `N#Cc1ccc(N2C[C@@H](N)C[C@@H](F)C2)c2nccnc12` [Compound 501, 8-((3S,5R)-3-Amino-5-fluoro-piperidin-1-yl)-quinoxaline-5-carbonitrile hydrochloride] it was greater than 10000 nM; in that of `COC(C)C(=O)N[C@@H]1C[C@H](C)CN(c2ccnc3nccnc23)C1` (single isomer, unassigned) [Compound 161], greater than 10000 nM; in that of `CC(C(=O)N[C@@H]1C[C@H](C)CN(c2ccc(C(F)F)c3ncccc23)C1)N1CCC(O)CC1` (stereo partly drawn) [Compound 313, N-[(3R,5S)-1-[8-(difluoromethyl)quinolin-5-yl]-5-methylpiperidin-3-yl]-2-(4-hydroxypiperidin-1-yl)propanamide], less than 1000 nM.
Under `C[C@H]1C[C@@H](N2CC[C@@H](N)C2=O)CN(c2ccnc3nccnc23)C1` [Compound 42, (3R)-3-amino-1-[(3R,5S)-5-methyl-1-[pyrido[2,3-b]pyrazin-8-yl]piperidin-3-yl]pyrrolidin-2-one] stands greater than 10000 nM; under `C[C@H]1C[C@@H](N)CN(c2ccc(F)c3ncccc23)C1` [Compound 341, (3R,5S)-1-(8-fluoroquinolin-5-yl)-5-methylpiperidin-3-amine], less than 1000 nM.
With `N#Cc1ccc(N2C[C@@H](NC(=O)CN3CCOCC3)C[C@@H](C(F)(F)F)C2)c2cccnc12` (racemic) [Compound 424, cis-N-[1-(8-Cyano-quinolin-5-yl)-5-trifluoromethyl-piperidin-3-yl]-2-morpholin-4-yl-acetamide], the IC50 is 1000 to 10000 nM.
